Data reported in patent US12319678B2, “Thioridazine derivatives and their use for the treatment of cancer” (UNIVERSITA' DEGLI STUDI DI PADOVA, priority 2019, dated 2025).

Tests used:
[1] = system: SHI-1, an AML cell line with the genetic aberrancy t(6;11); experiment: Apoptosis assay (Annexin-V/propidium iodide) in t(6;11) SHI-1 cells; format: cell-based; conditions: for cytotoxic activity on t(6;11) AML cells (cell death): SHI-1, 24 h after treatment, compared with TDZ; for apoptotic and dead cells: relative to DMSO
Method: (§1) Apoptosis was evaluated by double staining with Annexin-V/propidium iodide (Roche Biochemicals, Indianapolis, IN) and analyzed using Cytometer F C500 (Beckman Coulter, Brea, CA). Increased apoptosis was calculated and expressed as the percentage of Annexin-V-positive and propidium iodide-positive cells compared to those exposed to DMSO.

SHI-1 cells = experiment: Intracellular Ca2+ measurement (Fluo-4 AM) in SHI-1 cells; format: cell-based; conditions: for mechanism of Ca2+ influx: SHI-1, Ca2+-containing or Ca2+-free buffer
Method: (§2) Intracellular Ca^2+ levels were monitored by Fluo-4 AM fluorescence according to the manufacturer's instructions. Briefly, cells were washed in Hanks Balanced Salt Solutions, incubated with Fluo-4 AM 3 μM diluted in the working buffer (0.02% w/v Pluronic and 0.2 mM sulfinpyrazone, both sourced from Sigma-Aldrich-Merck, in 10 mM HEPES-buffered Hanks) for 30′ at RT. After incubation, cells were washed and resuspended in working buffer with CaCl2) 0.2 mg/I for 30′, to allow the de-esterification of Fluo-4 AM. Results were evaluated using the FC500 cytometer, and 2-photon microscope Thorlabs. In both experiments, the mean fluorescence intensity (MFI) was detected at basal condition, and up to 5 minutes after treatment.

NSG mice = experiment: Stepping test (akinesia, neuroleptic effects); format: in vivo; conditions: for neuroleptic effects (akinesia, stepping test): i.p., 36.85 μmol/Kg (corresponding to 15 mg/kg of TDZ), 1 h after injection
Method: Twelve NSG mice between 6 and 8 weeks of age were randomized in 4 groups (DMSO, thioridazine (TDZ), compound according to Example 1 (TDZ2) and compound according to Example 2 (TDZ6)), and treated every 2 days with growing doses of drugs, administered ip. […] The successive growing doses were 10 mg/kg, 12 mg/kg and finally 15 mg/kg, and the corresponding molar dose of the analogues. The stepping test was performed as previously described (Blume S R, Cass D K, Tseng K Y. Stepping test in mice: A reliable approach in determining forelimb akinesia in MPTP-induced Parkinsonism. Exp Neurol. 2009; 219:208-11) 1 h after drug injection, documented to be the time with the maximum TDZ serum concentration (Nagel D, Spranger S, Vincendeau M, Grau M, Raffegerst S, Kloo B, et al. Pharmacologic Inhibition of MALT1 Protease by Phenothiazines as a Therapeutic Approach for the Treatment of Aggressive ABC-DLBCL. Cancer Cell. 2012; 22:825-37). Briefly, the stepping test was performed on an open table and each trial was recorded using a digital video camera. The animal was allowed to settle at one edge of the table, then the experimenter would lift up the hind legs by pulling up on the tail, leaving only the forepaws touching the table, for a total distance of 1 m. The number of steps from both forepaws and the time used were computed.

[2] = system: other AML cell lines harboring other genetic mutations (HL60, NOMO1, SKNO-1); experiment: Apoptosis assay in non-t(6;11) AML cell lines; format: cell-based; conditions: 24 and 48 h
Method: as §1

t(6;11) SHI-1 cells [3] = experiment: Colonies forming assay in t(6;11) SHI-1 cells; format: cell-based; conditions: 24 h pre-treatment, viable cells seeded in drug-free condition
Method: (§3) After 24 h of treatment, a total of 5×10^2 ML2, SHI-1, HL60, SKNO-1 or NOMO-1 cells and 3×10^3 primary blasts from patients with t(6;11)—rearranged AML were seeded into 500 μl of MethoCult™ (H4230 and H4534 respectively, Stemcell Technologies, Meda M B, Italy), in 24-well plates and incubated at 37° C. Fourteen days after seeding, an adequate volume of a 1:6 solution of 3-[4,5-dimethylthiazol-2-yl]-2,5-diphenyltetrazolium bromide (MTT, Sigma-Aldrich-Merck) in Hanks' was added to semisolid medium. Images were acquired by optical microscope with camera, and colonies were counted using ImageJ software.

[4] = system: non-t(6;11) HL60, NOMO-1, SKNO-1 cells; experiment: Colonies forming assay in non-t(6;11) AML cell lines; format: cell-based; conditions: 24 h of treatment, other AML cell lines
Method: as §3

[5] = system: primary cultures from patients with t(6;11) AML; experiment: Apoptosis assay in primary t(6;11) AML cultures; format: cell-based; conditions: primary t(6;11) AML compared with non-t(6;11)-AML; 24 and 48 h
Method: as §1

[6] = system: healthy bone marrow (HBM) cells; experiment: Apoptosis assay in healthy bone marrow cells; format: cell-based; conditions: 24 and 48 h
Method: as §1

[7] = system: t(6;11)-AML primary cells; experiment: Colonies forming assay in t(6;11)-AML primary cells; format: cell-based
Method: as §3

SHI-1 xenografted mice = experiment: Flank injection xenograft, SHI-1; format: in vivo, NSG mice; conditions: 8 mg/kg daily i.p., compared with control (p<0.01 and p<0.001)
Method: (§4) Animal experiments were approved by the animal ethics committee of University of Padova and by Italian Minister of Health n° 512/2019-PR, and were executed in accordance with national guidelines and regulations. For flank injection experiments, six NOD-SCID interleukin-2 receptor gamma null (NSG) mice between 6 and 8 weeks of age were injected subcutaneously with 2×10^6 SHI-1, HL60 or THP-1 cells per flank-injection. Each mouse received two flank-injections. When tumors reached an area of 25 mm^2, mice were randomized in 2 groups (control and TDZ-treated), and daily treated with intraperitoneally (ip) administered TDZ 8 mg/kg. Experimental endpoint is reached when tumors reached an area of 250 mm^2.
(§5) TDZ was also used for further tests and particularly to test if it had same effects on leukemia growth in vivo in NOD/scid IL-2Rgnull (NSG) mice flank-injected with the SHI-1-t(6;11) or non-t(6;11) AML cell lines HL60 and THP-1. Xenografted tumor was allowed to grow up to ˜[…] before starting daily intraperitoneal (i.p.) TDZ administration (at 8 mg/kg concentration, below the previously described tolerated dose (Nagel D, Spranger S, Vincendeau M, Grau M, Raffegerst S, Kloo B, et al. Pharmacologic Inhibition of MALT1 Protease by Phenothiazines as a Therapeutic Approach for the Treatment of Aggressive ABC-DLBCL. Cancer Cell. 2012; 22:825-37)).

[8] = system: mice xenografted with HL60 or THP1; experiment: Flank injection xenograft, HL60 or THP1; format: in vivo, NSG mice; conditions: 8 mg/kg daily i.p.
Method: as §4, §5

t(6;11) SHI-1 cells [9] = experiment: Reactive oxygen species (CellROX) by flow cytometry; format: cell-based; conditions: 6, 16 and 24 h after treatment, compared with DMSO
Method: ROS production was monitored by flow cytometry using CellROX Deep Red Reagent (C10422, Invitrogen) following manufacturer's instructions. Briefly, CellROX Deep Red Reagent was added at a final concentration of 5 μM to the cells and incubated for 30 minutes at 37° C. Cells were washed three times with PBS, and analyzed by flow cytometry using Cytoflex (Beckman Coulter).

t(6;11) SHI-1 cells [10] = experiment: Mitochondrial membrane potential (TMRE); format: cell-based; conditions: 6 and 24 h after treatment, compared with DMSO
Method: Mitochondrial membrane potential was measured by using TMRE Assay Kit (ab113852, Abcam), following manufacturer's instructions Briefly, TMRE 200 nM diluted in BSA 0.2%-PBS1× was added for 20′ at 37° C. Cells were analyzed by flow cytometry using FC500.

t(6;11) primary cells = experiment: Intracellular Ca2+ measurement (Fluo-4 AM) in t(6;11) primary cells; format: cell-based; conditions: primary cultures of t(6;11) AML
Method: as §2

Q: For `COCCOCCOCCN1CCCCC1CCN1c2ccccc2Sc2ccc(SC)cc21` (stereo not shown) [TDZ2], which “cytotoxic activity on t(6;11) AML cells (cell death)” value [1] is on record?
A: Its value is “maintain cytotoxic activity”.

Q: What about the “mechanism of Ca2+ influx” value (SHI-1 cells) of the same compound?
A: Its value is “same mechanism of Ca^2+ influx of TDZ”.

Q: What about the “neuroleptic effects (akinesia, stepping test)” value (“neuroleptic effects” below) (NSG mice) of the same compound?
A: The value was “did not induce neuroleptic effects”.

Q: With `CSc1ccc2c(c1)N(CCC1CCCCN1C)c1ccccc1S2` (racemic) [TDZ, thioridazine] as the compound, how does the “apoptotic and dead cells” value ([1]; SHI-1, 24 h of treatment) read?
A: Its value is 60.8%.

Q: What about the “apoptotic and dead cells” value ([1]; SHI-1, 48 h of treatment) of the same compound?
A: Its value is 84.3%.

Q: And the “apoptosis level after MLL-AF6 silencing” value ([1]; SHI-1, treatment 16 h after MLL-AF6 silencing, 8, 24 and 30 h after treatment)?
A: The value was “significant rescue of apoptosis level”.

Q: What about the “apoptosis and cell death” value [2] of the same compound?
A: Its value is “almost no effects”.

Q: What about the colony-forming ability (t(6;11) SHI-1 cells [3]) of the same compound?
A: The colony-forming ability was “abrogated colony-forming ability”.

Q: And the clonogenic potential [4]?
A: Its clonogenic potential is “did not decrease the clonogenic potential”.

Q: And the apoptosis [5]?
A: Its apoptosis is “induced apoptosis selectively”.

Q: What about the toxic effects [6] of the same compound?
A: Its toxic effects is “no toxic effects”.

Q: And the colony-forming ability [7]?
A: Its colony-forming ability is “abrogated colony-forming ability”.

Q: What about the “progression of tumor growth” value (SHI-1 xenografted mice) of the same compound?
A: The value was “significantly reduced the progression of tumor growth”.

Q: What about the tumor growth [8] of the same compound?
A: Its tumor growth is “not affected”.

Q: What about the “reactive oxygen species (ROS)” value (t(6;11) SHI-1 cells [9]) of the same compound?
A: Its value is “highly increased”.

Q: And the “mitochondrial depolarization (TMRE)” value (t(6;11) SHI-1 cells [10])?
A: The value was “mitochondrial depolarization”.

Q: And the “intracellular Ca2+, MFI (Fluo-4 AM, flow cytometry)” value (shortened to “intracellular Ca2+, MFI”) (SHI-1 cells; 0 minutes post treatment)?
A: Its value is 68.9.

Q: What about the “intracellular Ca2+, MFI” value (SHI-1 cells; 1 minute post treatment) of the same compound?
A: The value was 91.8.

Q: What about the “intracellular Ca2+, MFI” value (SHI-1 cells; 3 minutes post treatment) of the same compound?
A: Its value is 85.8.

Q: And the “intracellular Ca2+, MFI” value (SHI-1 cells; 5 minutes post treatment)?
A: Its value is 85.4.

Q: What about the “rise in intracellular Ca2+ concentration” value (SHI-1 cells; Ca2+-containing buffer (external Ca2+ present)) of the same compound?
A: The value was “triggers a rise in intracellular Ca^2+ concentration in the presence”.

Q: And the “Ca2+ intake after EGTA pre-treatment” value (SHI-1 cells; SHI-1, EGTA pre-treatment 30' before TDZ)?
A: Its value is “Ca^2+ intake was prevented”.

Q: And the “cytosolic Ca2+ influx” value (t(6;11) primary cells)?
A: The value was “increased cytosolic Ca^2+ influx”.

Q: What about the side effects (NSG mice; 8 mg/kg i.p. starting dose, previously tested) of the same compound?
A: Its side effects is “free of side effects”.

Q: And the “neuroleptic effects” value (NSG mice)?
A: Its value is “provokes severe central side effects”.

Q: How did the “cytotoxic activity on t(6;11) AML cells (cell death)” value [1] turn out when `CSc1ccc2c(c1)N(CCC1CCCCN1CCOCCOCCN)c1ccccc1S2` (stereo not shown) [TDZ6] was run?
A: Its value is “maintain cytotoxic activity”.

Q: What about the “mechanism of Ca2+ influx” value (SHI-1 cells) of the same compound?
A: Its value is “same mechanism of Ca^2+ influx of TDZ”.

Q: What about the “neuroleptic effects” value (NSG mice) of the same compound?
A: The value was “did not induce neuroleptic effects”.
